Test results reported in patent US20220378706A1, “PHARMACEUTICAL COMPOSITION COMPRISING PDE9 INHIBITOR” (Eisai R&D Management Co., Ltd., priority 2017, published 2022).
Like-named read-outs stand apart in the source and are kept apart here.

Experiment: Multiple ascending dose study: plasma pharmacokinetics
Assay type: in vivo
Conditions: human, po; for Tmax: read-out: tmax Median
Protocol: Four sequential cohorts of healthy participants (≥50 years and ≤85 years old) were treated with multiple ascending doses of Compound A up to the maximum tolerated dose (MTD). A total of 6 participants per cohort were randomized to Compound A. Proposed doses of Compound A were:
Participants received Compound A capsules, orally once daily (QD) on Days 1 to 14 after an overnight fast of at least 10 hours. Compound A was administered orally with 240 milliliter (mL) (8 fluid ounces) of water.
1) Maximum drug concentration (Cmax) [Time Frame: Day 1 and Day 14]
Blood samples were collected on Day 1 at predose and postdose 0.5 (30 minutes), 1, 1.5, 2, 3, 4, 5, 6, 8, 12, and 18 hours; Day 14 (at predose and postdose 0.5, 1, 1.5, 2, 3, 4, 5, 6, 8, 12, and 18 hours); and Day 15 (24 hours postdose from Day 14).
2) Mean time to reach maximum (peak) drug concentration (tmax) [Time Frame: Day 1 and Day 14]
4) Mean area under the concentration-time curve from zero time extrapolated to infinity (AUC(0-inf)) [Time Frame: Day 14]

## COc1ncc(C)c(-c2ccc3c(c2)[nH]c(=O)c2cnn([C@H]4CCOC4)c23)c1C [Compound A, (S)-7-(2-methoxy-3,5-dimethylpyridin-4-yl)-1-(tetrahydrofuran-3-yl)-1H-pyrazolo[4,3-c]quin olin-4(5H)-one]
5 mg, Day 1, 5 mg QD oral, read-out: AUC(0-24 h) GM (% CV)
  AUC(0-t): 344 ng·h/mL
5 mg, Day 1, 5 mg QD oral, read-out: AUC(0-24 h) Mean (SD)
  AUC(0-t): 352 ng·h/mL
5 mg, Day 1, 5 mg QD oral, read-out: AUC(0-24 h) Median
  AUC(0-t): 340 ng·h/mL
5 mg, Day 1, 5 mg QD oral, read-out: Cmax GM (% CV)
  Cmax: 26.3 ng/mL
5 mg, Day 1, 5 mg QD oral, read-out: Cmax Mean (SD)
  Cmax: 27.4 ng/mL
5 mg, Day 1, 5 mg QD oral, read-out: Cmax Median
  Cmax: 26.6 ng/mL
5 mg, Day 1, 5 mg QD oral
  Tmax: 4 h
5 mg, Day 14, 5 mg QD oral, read-out: AUC(0-24 h) GM (% CV)
  AUC(0-t): 844 ng·h/mL
5 mg, Day 14, 5 mg QD oral, read-out: AUC(0-24 h) Mean (SD)
  AUC(0-t): 864 ng·h/mL
5 mg, Day 14, 5 mg QD oral, read-out: AUC(0-24 h) Median
  AUC(0-t): 773 ng·h/mL
5 mg, Day 14, 5 mg QD oral, read-out: AUC(0-inf) GM (% CV)
  AUC(0-inf): 2380 ng·h/mL
5 mg, Day 14, 5 mg QD oral, read-out: AUC(0-inf) Mean (SD)
  AUC(0-inf): 2480 ng·h/mL
5 mg, Day 14, 5 mg QD oral, read-out: AUC(0-inf) Median
  AUC(0-inf): 2510 ng·h/mL
5 mg, Day 14, 5 mg QD oral, read-out: Cmax GM (% CV)
  Cmax: 58.6 ng/mL
5 mg, Day 14, 5 mg QD oral, read-out: Cmax Mean (SD)
  Cmax: 61.7 ng/mL
5 mg, Day 14, 5 mg QD oral, read-out: Cmax Median
  Cmax: 49.4 ng/mL
5 mg, Day 14, 5 mg QD oral
  Tmax: 4 h
10 mg, Day 1, 10 mg QD oral, read-out: AUC(0-24 h) GM (% CV)
  AUC(0-t): 781 ng·h/mL
10 mg, Day 1, 10 mg QD oral, read-out: AUC(0-24 h) Mean (SD)
  AUC(0-t): 784 ng·h/mL
10 mg, Day 1, 10 mg QD oral, read-out: AUC(0-24 h) Median
  AUC(0-t): 735 ng·h/mL
10 mg, Day 1, 10 mg QD oral, read-out: Cmax GM (% CV)
  Cmax: 65.5 ng/mL
10 mg, Day 1, 10 mg QD oral, read-out: Cmax Mean (SD)
  Cmax: 66.2 ng/mL
10 mg, Day 1, 10 mg QD oral, read-out: Cmax Median
  Cmax: 65.8 ng/mL
10 mg, Day 1, 10 mg QD oral
  Tmax: 2 h
10 mg, Day 14, 10 mg QD oral, read-out: AUC(0-24 h) GM (% CV)
  AUC(0-t): 1900 ng·h/mL
10 mg, Day 14, 10 mg QD oral, read-out: AUC(0-24 h) Mean (SD)
  AUC(0-t): 1940 ng·h/mL
10 mg, Day 14, 10 mg QD oral, read-out: AUC(0-24 h) Median
  AUC(0-t): 1980 ng·h/mL
10 mg, Day 14, 10 mg QD oral, read-out: AUC(0-inf) GM (% CV)
  AUC(0-inf): 5100 ng·h/mL
10 mg, Day 14, 10 mg QD oral, read-out: AUC(0-inf) Mean (SD)
  AUC(0-inf): 5260 ng·h/mL
10 mg, Day 14, 10 mg QD oral, read-out: AUC(0-inf) Median
  AUC(0-inf): 5360 ng·h/mL
10 mg, Day 14, 10 mg QD oral, read-out: Cmax GM (% CV)
  Cmax: 135 ng/mL
10 mg, Day 14, 10 mg QD oral, read-out: Cmax Mean (SD)
  Cmax: 137 ng/mL
10 mg, Day 14, 10 mg QD oral, read-out: Cmax Median
  Cmax: 144 ng/mL
10 mg, Day 14, 10 mg QD oral
  Tmax: 1.5 h
25 mg, Day 1, 25 mg QD oral, read-out: AUC(0-24 h) GM (% CV)
  AUC(0-t): 1650 ng·h/mL
25 mg, Day 1, 25 mg QD oral, read-out: AUC(0-24 h) Mean (SD)
  AUC(0-t): 1670 ng·h/mL
25 mg, Day 1, 25 mg QD oral, read-out: AUC(0-24 h) Median
  AUC(0-t): 1700 ng·h/mL
25 mg, Day 1, 25 mg QD oral, read-out: Cmax GM (% CV)
  Cmax: 125 ng/mL
25 mg, Day 1, 25 mg QD oral, read-out: Cmax Mean (SD)
  Cmax: 129 ng/mL
25 mg, Day 1, 25 mg QD oral, read-out: Cmax Median
  Cmax: 136 ng/mL
25 mg, Day 1, 25 mg QD oral
  Tmax: 3.01 h
25 mg, Day 14, 25 mg QD oral, read-out: AUC(0-24 h) GM (% CV)
  AUC(0-t): 5140 ng·h/mL
25 mg, Day 14, 25 mg QD oral, read-out: AUC(0-24 h) Mean (SD)
  AUC(0-t): 5210 ng·h/mL
25 mg, Day 14, 25 mg QD oral, read-out: AUC(0-24 h) Median
  AUC(0-t): 4760 ng·h/mL
25 mg, Day 14, 25 mg QD oral, read-out: AUC(0-inf) GM (% CV)
  AUC(0-inf): 15400 ng·h/mL
25 mg, Day 14, 25 mg QD oral, read-out: AUC(0-inf) Mean (SD)
  AUC(0-inf): 16200 ng·h/mL
25 mg, Day 14, 25 mg QD oral, read-out: AUC(0-inf) Median
  AUC(0-inf): 14000 ng·h/mL
25 mg, Day 14, 25 mg QD oral, read-out: Cmax GM (% CV)
  Cmax: 332 ng/mL
25 mg, Day 14, 25 mg QD oral, read-out: Cmax Mean (SD)
  Cmax: 336 ng/mL
25 mg, Day 14, 25 mg QD oral, read-out: Cmax Median
  Cmax: 318 ng/mL
25 mg, Day 14, 25 mg QD oral
  Tmax: 3 h
50 mg, Day 1, 50 mg QD oral, read-out: AUC(0-24 h) GM (% CV)
  AUC(0-t): 2970 ng·h/mL
50 mg, Day 1, 50 mg QD oral, read-out: AUC(0-24 h) Mean (SD)
  AUC(0-t): 3110 ng·h/mL
50 mg, Day 1, 50 mg QD oral, read-out: AUC(0-24 h) Median
  AUC(0-t): 3060 ng·h/mL
50 mg, Day 1, 50 mg QD oral, read-out: Cmax GM (% CV)
  Cmax: 214 ng/mL
50 mg, Day 1, 50 mg QD oral, read-out: Cmax Mean (SD)
  Cmax: 237 ng/mL
50 mg, Day 1, 50 mg QD oral, read-out: Cmax Median
  Cmax: 226 ng/mL
50 mg, Day 1, 50 mg QD oral
  Tmax: 3.53 h
50 mg, Day 14, 50 mg QD oral, read-out: AUC(0-24 h) GM (% CV)
  AUC(0-t): 11500 ng·h/mL
50 mg, Day 14, 50 mg QD oral, read-out: AUC(0-24 h) Mean (SD)
  AUC(0-t): 11800 ng·h/mL
50 mg, Day 14, 50 mg QD oral, read-out: AUC(0-24 h) Median
  AUC(0-t): 10900 ng·h/mL
50 mg, Day 14, 50 mg QD oral, read-out: AUC(0-inf) GM (% CV)
  AUC(0-inf): 38600 ng·h/mL
50 mg, Day 14, 50 mg QD oral, read-out: AUC(0-inf) Mean (SD)
  AUC(0-inf): 40700 ng·h/mL
50 mg, Day 14, 50 mg QD oral, read-out: AUC(0-inf) Median
  AUC(0-inf): 38100 ng·h/mL
50 mg, Day 14, 50 mg QD oral, read-out: Cmax GM (% CV)
  Cmax: 778 ng/mL
50 mg, Day 14, 50 mg QD oral, read-out: Cmax Mean (SD)
  Cmax: 788 ng/mL
50 mg, Day 14, 50 mg QD oral, read-out: Cmax Median
  Cmax: 807 ng/mL
50 mg, Day 14, 50 mg QD oral
  Tmax: 1.5 h
50 mg, Part C, 50 mg oral, read-out: AUC (0-24 h) GM (% CV)
  AUC(0-t): 10500 ng·h/mL
50 mg, Part C, 50 mg oral, read-out: AUC (0-24 h) Mean (SD)
  AUC(0-t): 10800 ng·h/mL
50 mg, Part C, 50 mg oral, read-out: AUC (0-24 h) Median
  AUC(0-t): 10600 ng·h/mL
